{"source": "patent US8372592B2", "about": "“High resolution label free analysis of cellular properties” (X-Body, Inc., priority 2008, dated 2013)", "target": "VCAM-1 and VLA-4 binding (J6 cells, which express VLA-4) (Homo sapiens, UniProt P05556+P13612)", "sequence (P13612 34-1032)": "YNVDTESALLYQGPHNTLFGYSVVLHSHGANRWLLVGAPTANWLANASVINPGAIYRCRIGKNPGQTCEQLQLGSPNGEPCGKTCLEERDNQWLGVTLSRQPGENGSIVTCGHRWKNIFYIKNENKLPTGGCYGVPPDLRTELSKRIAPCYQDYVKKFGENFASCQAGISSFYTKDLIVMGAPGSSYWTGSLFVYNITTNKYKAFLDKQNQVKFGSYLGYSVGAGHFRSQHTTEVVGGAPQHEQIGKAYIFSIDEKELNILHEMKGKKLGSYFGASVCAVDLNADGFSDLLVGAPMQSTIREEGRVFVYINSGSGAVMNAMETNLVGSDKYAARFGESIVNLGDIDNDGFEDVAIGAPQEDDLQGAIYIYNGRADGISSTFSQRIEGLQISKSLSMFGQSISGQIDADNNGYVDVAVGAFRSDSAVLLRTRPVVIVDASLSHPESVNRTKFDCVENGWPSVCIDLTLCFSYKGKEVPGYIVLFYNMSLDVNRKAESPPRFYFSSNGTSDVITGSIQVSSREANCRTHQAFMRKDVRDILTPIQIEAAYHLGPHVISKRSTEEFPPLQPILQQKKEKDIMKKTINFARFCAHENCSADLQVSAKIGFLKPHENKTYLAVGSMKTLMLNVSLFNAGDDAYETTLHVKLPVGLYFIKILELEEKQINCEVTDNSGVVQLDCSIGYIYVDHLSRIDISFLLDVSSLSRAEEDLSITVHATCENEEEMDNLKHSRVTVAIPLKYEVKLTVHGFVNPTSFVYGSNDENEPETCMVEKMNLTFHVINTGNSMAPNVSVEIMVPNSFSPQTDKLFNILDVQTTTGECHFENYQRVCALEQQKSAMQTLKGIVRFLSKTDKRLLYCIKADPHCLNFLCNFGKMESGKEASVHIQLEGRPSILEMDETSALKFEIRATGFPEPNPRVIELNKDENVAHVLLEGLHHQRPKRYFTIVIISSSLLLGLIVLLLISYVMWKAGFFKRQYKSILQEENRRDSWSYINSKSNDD", "sequence (P05556 21-798)": "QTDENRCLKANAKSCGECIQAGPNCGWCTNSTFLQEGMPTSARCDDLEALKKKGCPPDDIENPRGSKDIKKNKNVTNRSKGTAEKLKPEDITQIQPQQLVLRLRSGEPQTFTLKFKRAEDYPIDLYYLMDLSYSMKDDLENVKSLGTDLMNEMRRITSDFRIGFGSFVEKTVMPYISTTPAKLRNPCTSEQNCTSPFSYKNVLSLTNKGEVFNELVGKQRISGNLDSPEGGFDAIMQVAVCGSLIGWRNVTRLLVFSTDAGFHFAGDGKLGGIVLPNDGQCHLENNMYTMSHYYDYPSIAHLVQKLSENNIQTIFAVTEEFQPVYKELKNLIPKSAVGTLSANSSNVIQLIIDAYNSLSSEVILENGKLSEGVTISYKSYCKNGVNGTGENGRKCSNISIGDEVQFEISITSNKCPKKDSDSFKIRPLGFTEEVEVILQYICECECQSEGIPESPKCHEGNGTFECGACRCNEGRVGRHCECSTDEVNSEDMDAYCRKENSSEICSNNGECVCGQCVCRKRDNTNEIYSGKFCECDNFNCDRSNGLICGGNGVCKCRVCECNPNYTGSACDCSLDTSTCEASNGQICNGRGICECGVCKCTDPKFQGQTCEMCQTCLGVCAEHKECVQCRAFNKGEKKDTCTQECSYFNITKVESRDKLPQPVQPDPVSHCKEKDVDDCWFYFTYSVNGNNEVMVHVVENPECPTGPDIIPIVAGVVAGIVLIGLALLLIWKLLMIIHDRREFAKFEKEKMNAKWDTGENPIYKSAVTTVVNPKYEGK", "conditions": "J6 cells + 1 mM Mn2+; EDTA added at the 110 minute mark; FIG. 4", "procedure": "VCAM-1 can be fused or bound to a ZZ-binding domain from Protein A. The ZZ-binding domain will specifically bind to IgG immobilized on the surface of the biosensor. Cells that express VLA-4 will bind to the VCAM-1 adhesion protein, which is bound to IgG immobilized to the surface of the biosensor. Therefore cells expressing an adhesion protein ligand will be immobilized to the biosensor surface.\nVCAM-1, which was fused to the ZZ-binding domain of Protein A, was added to a biosensor having IgG immobilized to its surface. J6 cells, which express VLA-4, were added to the biosensor surface. […] The “J6 cells+1 mM Mn^2+” and “Buffer” lines shown in FIG. 4 both contained J6 cells and 1 mM Mn^2+. The “J6 cells and EDTA” line contained J6 cells and EDTA. At the 110 minute mark, EDTA was added to the “J6 cells+1 mM Mn^2+” cells."}
{"smiles": "O=C(O)CN(CCN(CC(=O)O)CC(=O)O)CC(=O)O", "note": "[EDTA]", "values": [{"measurement": "amount of binding of cells to the VCAM-1 immobilized to the surface of the biosensor", "value": "quickly dropped off"}]}
